The target of the assay is ULK1. The experiment in a line: ULK1 inhibition assay (Table 1). The format is biochemical. Conditions: * = tested as a mixture of regioisomers.
For orientation: IC50 means the concentration at which inhibition is half-maximal. As to `CC(Cl)CNc1nc(Nc2ccc3c(c2)CCC(=O)N3)ncc1C(F)(F)F` (stereo not drawn) [Example 183b, 6-((4-((2-chloropropyl)amino)-5-(trifluoromethyl)pyrimidin-2-yl)amino)-3,4-dihydroquinolin-2(1H)-one], the IC50 was under 200 nM. As for `CC(CCl)Nc1nc(Nc2ccc3c(c2)CCC(=O)N3)ncc1C(F)(F)F` (stereo not drawn) [Example 183c, 6-((4-((1-chloropropan-2-yl)amino)-5-(trifluoromethyl)pyrimidin-2-yl)amino)-3,4-dihydroquinolin-2(1H)-one], the figure is over 2000 nM; as for `CN(c1ccccc1)c1nc(Nc2ccc3c(c2)CCC(=O)N3)ncc1C(F)(F)F` [Example 184a, 6-((4-(methyl(phenyl)amino)-5-(trifluoromethyl)pyrimidin-2-yl)amino)-3,4-dihydroquinolin-2(1H)-one], 200 to 2000 nM; as for `CN(c1ccccc1)c1ncc(C(F)(F)F)c(Nc2ccc3c(c2)CCC(=O)N3)n1` [Example 184b, 6-((2-(methyl(phenyl)amino)-5-(trifluoromethyl)pyrimidin-4-yl)amino)-3,4-dihydroquinolin-2(1H)-one], under 200 nM.

Consider `Oc1ncc(C(F)(F)F)c(NC2CC2)n1` [Example 189, 4-(cyclopropylamino)-5-(trifluoromethyl)pyrimidin-2-ol], for which the IC50 is over 2000 nM. As for `FC(F)(F)c1cnc(Nc2cccnc2)nc1NC1CC1` [Example 196, N4-cyclopropyl-N2-(pyridin-3-yl)-5-(trifluoromethyl) pyrimidine-2,4-diamine], the figure is over 2000 nM; as for `O=C1CCc2cc(Nc3ncc(C(F)(F)F)c(NC4CNC4)n3)ccc2N1` [Example 198a, 6-((4-(azetidin-3-ylamino)-5-(trifluoromethyl)pyrimidin-2-yl)amino)-3,4-dihydroquinolin-2(1H)-one], 200 to 2000 nM. As for `O=C1CCc2cc(Nc3ncc(C(F)(F)F)c(NC4CN(c5nc(Nc6ccc7c(c6)CCC(=O)N7)ncc5C(F)(F)F)C4)n3)ccc2N1` [Example 198b, 6-((4-(3-((2-((2-oxo-1,2,3,4-tetrahydroquinolin-6-yl)amino)-5-(trifluoromethyl)pyrimidin-4-yl)amino)azetidin-1-yl)-5-(trifluoromethyl)pyrimidin-2-yl)amino)-3,4-dihydroquinolin-2(1H)-one], the IC50 is over 2000 nM.

Regarding `FC(F)(F)c1cnc(Nc2cncnc2)nc1NC1CC1` [Example 203, N4-cyclopropyl-N2-(pyrimidin-5-yl)-5-(trifluoromethyl) pyrimidine-2,4-diamine], the IC50 was under 200 nM. As to `c1cc(NC2CC2)nc(Nc2cnc3[nH]ccc3c2)n1` [Example 204, N4-cyclopropyl-N2-(1H-pyrrolo[2,3-b]pyridin-5-yl)pyrimidine-2,4-diamine], the IC50 was over 2000 nM.

With `OC1Nc2ccc(Nc3ncc(C(F)(F)F)c(NC4CC4)n3)cc2O1` (stereo not drawn) [Example 208b, 6-((4-(cyclopropylamino)-5-(trifluoromethyl)pyrimidin-2-yl)amino)-2,3-dihydrobenzo[d]oxazol-2-ol], the IC50 is under 200 nM. In the case of `O=C1CCc2cc(Nc3ncc(C(F)(F)F)c(OCCNCCO)n3)ccc2N1` [Example 212b, 6-((4-(2-((2-hydroxyethyl)amino)ethoxy)-5-(trifluoromethyl)pyrimidin-2-yl)amino)-3,4-dihydroquinolin-2(1H)-one], the IC50 fell in the range of 200 to 2000 nM. The value for `FC(F)(F)c1cnc(Nc2ccon2)nc1NC1CC1` [Example 214a, N4-cyclopropyl-N2-(isoxazol-3-yl)-5-(trifluoromethyl)pyrimidine-2,4-diamine] was 200 to 2000 nM. The value for `N=c1ccon1-c1ncc(C(F)(F)F)c(NC2CC2)n1` [Example 214b, N-cyclopropyl-2-(3-iminoisoxazol-2(3H)-yl)-5-(trifluoromethyl)pyrimidin-4-amine] was over 2000 nM; that for `CN(C)c1nc(Nc2ccc3c(c2)CCC(=O)N3)ncc1C(F)(F)F` [Example 220b, 6-((4-(dimethylamino)-5-(trifluoromethyl)pyrimidin-2-yl)amino)-3,4-dihydroquinolin-2(1H)-one] was under 200 nM.

The values above are taken from patent US10774092B2 (SALK INSTITUTE FOR BIOLOGICAL STUDIES, priority 2014, dated 2020).
